Tests used:
olfr490 = target: T1, olfr490 (Mus musculus, UniProt Q8VFD2); assay: OR transcript level by RT-qPCR after in vivo odorant exposure; set-up: key: The transcript downregulation of 21 out of the 26 olfactory receptor candidates obtained by RNAseq was confirmed by qPCR; false RNAseq positive candidates, namely OR candidates for which in fact mRNA was not downregulated following acetophenone exposure; conditions: 5% acetophenone exposure
T1 construct: from tissue; host or cells: main olfactory epithelium of living C57BL/6 mice
T1 sequence (Q8VFD2 whole entry): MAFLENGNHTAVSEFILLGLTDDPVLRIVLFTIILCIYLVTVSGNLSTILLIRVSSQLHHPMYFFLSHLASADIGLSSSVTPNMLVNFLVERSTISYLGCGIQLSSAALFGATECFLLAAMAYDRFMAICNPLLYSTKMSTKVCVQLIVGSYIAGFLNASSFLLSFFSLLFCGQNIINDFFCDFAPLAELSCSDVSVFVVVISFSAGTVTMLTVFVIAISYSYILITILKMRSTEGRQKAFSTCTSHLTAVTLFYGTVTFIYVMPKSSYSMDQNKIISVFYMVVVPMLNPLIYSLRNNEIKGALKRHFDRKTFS
Description: (§1) In vivo exposure to odorant: Starting 48 h before experiments, mice were habituated to pure DMSO on a cotton ball. 200 μl were pipetted directly onto the cotton and placed in the cage, replacing any cotton that was already in the cage for nest-making purposes.
(§2) On the day of the experiment, mice receiving odorants were transferred to a different room, where they were exposed to a cotton ball on which 200 μl of odorant diluted in pure DMSO were deposited. Exposures started in the morning between 8 and 10 am (that is two hours after lights were on) and mice were killed and dissected between 1 and 3 pm. […] If a number of different odorants were tested in the same experiment, a different overpressurized room would always be used for each odorant to avoid odor cross-contamination.
(§3) After odorant exposure, mice were killed by cervical dislocation and immediately decapitated. The main olfactory epithelia (MOE), were harvested in their entirety and transferred to a tube containing 600 μl of lysis buffer and β-mercaptoethanol (RNAeasy kit, Qiagen, following the manufacturer protocol) and a 0.5 cm diameter steel ball, and then put on ice. Samples were then homogenized using a FastPrep®-24 instrument (MP Biomedicals) at 6 m/s for 30 s and left on ice. RNA extraction was performed on all samples in parallel using the Qiagen RNeasy Mini® kit following the manufacturer's instructions. Two DNase treatments were performed on all samples: first using the Qiagen RNase-Free DNase Set® and then using the Life Technologies Ambion DNase I® kit. RNA samples were then aliquoted and stored at −80° C.
(§4) RNA concentrations were determined using an Amersham Ultrospec® 3100 Pro spectrophotometer, and RNA quality was evaluated with an Agilent Technologies 2100 Bioanalyzer®. Each reverse transcription was performed with 0.5 μg RNA using the Takara Primescript® kit, in a final volume of 10 μl. Primers for reverse transcription were equal mixtures of poly-T nucleotides and random hexamers. Negative controls (omitting the reverse transcriptase enzyme) were performed for each sample. 1/14th of the cDNA preparation was used for each triplicated qPCR reaction.
(§5) qPCR Ct values were analyzed using an in-house developed Microsoft Excel® macro file. Triplicate values were compared and outliers (values with a difference higher than 0.5 Ct to their nearest neighbor) were discarded. The number of conditions with an outlying value was always less than 10% of the total number of conditions. Ct values were converted to quantities relative to the maximum for each given gene. Selected reference genes were then analyzed for variance using the geNorm algorithm. All values were normalized with the olfactory tissue-specific genes Omp and Adcy3. β-Actin was used as a non-tissue-specific reference gene to control for differences in dissection between samples.
(§6) Mice (n=6) were exposed to 5% acetophenone or to a “neutral” control condition for 5 hours. An olfactory cDNA library corresponding to each animal was deep sequenced and the ratios of odorant receptor mRNA concentrations relative to controls were plotted (FIG. 3). […] Based on transcriptional downregulation levels observed by RNAseq following acetophenone exposure, a list of 26 candidate responsive ORs was determined (FIG. 3), that reached 74% decrease (Olfr145) or even over 80% (Olfr169) relative to controls. […] The transcript downregulation of 21 out of the 26 olfactory receptor candidates obtained by RNAseq was confirmed by qPCR.

olfr145 = target: T2, olfr145 (Mus musculus, UniProt Q60882); assay: as above; set-up: key: The transcript downregulation of 21 out of the 26 olfactory receptor candidates obtained by RNAseq was confirmed by qPCR; false RNAseq positive candidates, namely OR candidates for which in fact mRNA was not downregulated following acetophenone exposure; conditions: 5% acetophenone exposure
T2 construct: from tissue; host or cells: main olfactory epithelium of living mice
T2 sequence (Q60882 whole entry): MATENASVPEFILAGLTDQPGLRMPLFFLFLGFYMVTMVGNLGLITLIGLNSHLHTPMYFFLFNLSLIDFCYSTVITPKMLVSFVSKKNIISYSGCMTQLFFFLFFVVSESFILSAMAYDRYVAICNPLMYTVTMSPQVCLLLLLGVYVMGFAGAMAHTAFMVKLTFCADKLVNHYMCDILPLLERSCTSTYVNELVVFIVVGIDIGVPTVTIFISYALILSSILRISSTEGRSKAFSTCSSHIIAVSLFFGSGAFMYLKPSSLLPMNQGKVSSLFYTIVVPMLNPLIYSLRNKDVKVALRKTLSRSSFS
Description: as §1, §2, §3, §4, §5, §6

olfr19 = target: T3, olfr19 (Mus musculus, UniProt Q9JHB2); assay: as above; set-up: key: The transcript downregulation of 21 out of the 26 olfactory receptor candidates obtained by RNAseq was confirmed by qPCR; false RNAseq positive candidates, namely OR candidates for which in fact mRNA was not downregulated following acetophenone exposure; conditions: 5% acetophenone exposure
T3 construct: from tissue; host or cells: main olfactory epithelium of living mice
T3 sequence (Q9JHB2 whole entry): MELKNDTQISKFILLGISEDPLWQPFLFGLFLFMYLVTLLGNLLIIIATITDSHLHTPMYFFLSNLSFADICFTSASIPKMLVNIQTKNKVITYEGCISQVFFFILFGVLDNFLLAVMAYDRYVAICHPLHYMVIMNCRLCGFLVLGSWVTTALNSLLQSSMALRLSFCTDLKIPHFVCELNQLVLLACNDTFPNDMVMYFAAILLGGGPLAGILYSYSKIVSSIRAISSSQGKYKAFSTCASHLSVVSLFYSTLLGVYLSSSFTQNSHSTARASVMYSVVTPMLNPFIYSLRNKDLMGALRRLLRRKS
Description: as §1, §2, §3, §4, §5, §6

olfr143 = target: T4, olfr143 (Mus musculus, UniProt P34985); assay: as above; set-up: key: The transcript downregulation of 21 out of the 26 olfactory receptor candidates obtained by RNAseq was confirmed by qPCR; false RNAseq positive candidates, namely OR candidates for which in fact mRNA was not downregulated following acetophenone exposure; conditions: 5% acetophenone exposure
T4 construct: from tissue; host or cells: main olfactory epithelium of living mice
T4 sequence (P34985 whole entry): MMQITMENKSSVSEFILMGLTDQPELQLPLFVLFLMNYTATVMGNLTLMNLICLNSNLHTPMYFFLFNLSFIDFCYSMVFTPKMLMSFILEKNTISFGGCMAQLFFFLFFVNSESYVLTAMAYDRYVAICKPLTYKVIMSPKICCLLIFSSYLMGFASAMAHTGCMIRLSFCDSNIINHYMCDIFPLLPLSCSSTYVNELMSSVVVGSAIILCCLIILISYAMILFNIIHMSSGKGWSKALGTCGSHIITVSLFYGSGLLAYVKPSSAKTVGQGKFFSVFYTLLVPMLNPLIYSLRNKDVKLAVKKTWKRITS
Description: as §1, §2, §3, §4, §5, §6

OSNs expressing olfr935 = assay: pS6 immunolabeling with OR in situ hybridization after odorant exposure; assay type: in vivo, mouse; conditions: 5% acetophenone, 60 minutes
Description: (§7) In order to independently validate the identity of an acetophenone receptor obtained with the RNAseq approach, the potential colocalization following acetophenone exposure of a neuronal activity marker (the phosphorylated ribosomal protein S6 (pS6) (Knight et al., 2012, Cell, 151, 1126-1137) and specific olfactory receptors were evaluated. To this aim, in-situ hybridizations were performed on sections of olfactory tissue with probes targeting receptor mRNAs followed by immunolabeling of pS6. The probes used were directed against the transcripts of most of the ORs determined as responsive including Olfr983 transcripts (encoding a known acetophenone receptor), Olfr171 transcripts (encoding a known ethyl isobutyrate receptor), and Olfr145 transcripts, encoding a newly identified receptor by RNAseq. Before analysis, mice were exposed to either 5% acetophenone, 5% ethyl isobutyrate, or a negative control condition for 60 minutes. […] 66% (Olfr983) and 70% (Olfr145) of the neurons were positive for pS6 after acetophenone exposure, while only 11% of the neurons expressing Olfr171 were positive for pS6 after exposure to this compound.

OSNs expressing olfr160 = assay: as above; assay type: in vivo, mouse; conditions: 5% acetophenone, 60 minutes
Description: as §7

OSNs expressing olfr229 = assay: as above; assay type: in vivo, mouse; conditions: 5% acetophenone, 60 minutes
Description: as §7

OSNs expressing olfr109 = assay: as above; assay type: in vivo, mouse; conditions: 5% acetophenone, 60 minutes
Description: as §7

OSNs expressing olfr1377 = assay: as above; assay type: in vivo, mouse; conditions: 5% acetophenone, 60 minutes
Description: as §7

[1] = test system: neurons expressing Olfr145; assay: as above; assay type: in vivo, mouse; conditions: 60 minutes
Description: as §7

OSNs expressing olfr901 = assay: as above; assay type: in vivo, mouse; conditions: 5% acetophenone, 60 minutes
Description: as §7

OSNs expressing olfr478 = assay: as above; assay type: in vivo, mouse; conditions: 5% acetophenone, 60 minutes
Description: as §7

OSNs expressing olfr922 = assay: as above; assay type: in vivo, mouse; conditions: 5% acetophenone, 60 minutes
Description: as §7

Olfr1377 = conditions: expressed in HEK cells; previously shown; read-out: EC50 as agonist of Olfr1377; cited from earlier work

SMILES: CC(=O)c1ccccc1 [acetophenone]
- olfr490 candidate OR (RNAseq) confirmed by qPCR (olfr490): n
- olfr145 candidate OR (RNAseq) confirmed by qPCR (olfr145): y
- olfr19 candidate OR (RNAseq) confirmed by qPCR (olfr19): y
- olfr143 candidate OR (RNAseq) confirmed by qPCR (olfr143): y
- olfr935 ps6 positive (OSNs expressing olfr935): y (neuronal activation (i.e. pS6 signal in a fraction of neuron exceeding 15% relative to controls))
- olfr160 ps6 positive (OSNs expressing olfr160): y (neuronal activation (i.e. pS6 signal in a fraction of neuron exceeding 15% relative to controls))
- olfr229 ps6 positive (OSNs expressing olfr229): y (neuronal activation (i.e. pS6 signal in a fraction of neuron exceeding 15% relative to controls))
- olfr109 ps6 positive (OSNs expressing olfr109): y (neuronal activation (i.e. pS6 signal in a fraction of neuron exceeding 15% relative to controls))
- olfr1377 ps6 positive (OSNs expressing olfr1377): y (neuronal activation (i.e. pS6 signal in a fraction of neuron exceeding 15% relative to controls))
- olfr145 ps6 positive ([1]; 5% acetophenone): y (neuronal activation (i.e. pS6 signal in a fraction of neuron exceeding 15% relative to controls))
- fraction of Olfr145-expressing neurons positive for pS6 ([1]; 5% odorant, in vivo): 70%
- olfr901 ps6 positive (OSNs expressing olfr901): y (neuronal activation (i.e. pS6 signal in a fraction of neuron exceeding 15% relative to controls))
- olfr478 ps6 positive (OSNs expressing olfr478): y (neuronal activation (i.e. pS6 signal in a fraction of neuron exceeding 15% relative to controls))
- olfr922 ps6 positive (OSNs expressing olfr922): y (neuronal activation (i.e. pS6 signal in a fraction of neuron exceeding 15% relative to controls))
- EC50 (Olfr1377): < 50 µM

Reference: patent publication US10473645B2, “Methods for identifying a receptor for a ligand and uses thereof” (UNIVERSITE DE GENEVE, priority 2014, dated 2019)
